In patent EP4635974A1, “COSMETIC COMPOSITION FOR SKIN IMPROVEMENT” (LG Household & Health Care Ltd., priority 2022, dated 2024):
Where a SMILES comes first, the peptide text is derived from it. Where no end group is shown, it is not given here. The star is where a group is joined. Palmitoyl = CCCCCCCCCCCCCCCC(=O)*

Key:
[1] = molecular target: T1, Elastase derived from human leukocytes (Homo sapiens, UniProt P08246); assay: Inhibition of elastase activity (synthetic substrate, absorbance at 405 nm); assay type: biochemical; conditions: for Inhibition of elastase activity (%): 100 µg/mL
T1 construct: Elastase derived from human leukocytes was used; from tissue; host or cells: human leukocytes
T1 sequence (P08246 30-267): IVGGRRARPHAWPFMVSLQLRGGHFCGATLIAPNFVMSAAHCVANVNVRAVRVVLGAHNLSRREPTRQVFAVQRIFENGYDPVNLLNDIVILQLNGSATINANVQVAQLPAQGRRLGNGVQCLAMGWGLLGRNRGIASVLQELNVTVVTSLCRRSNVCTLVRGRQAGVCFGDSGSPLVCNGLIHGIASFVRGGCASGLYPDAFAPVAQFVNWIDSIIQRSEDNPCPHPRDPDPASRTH
Experimental: (§1) In order to investigate the effect of peptide sequence variation, the activity of […] was tested as in Test Example 1 after sequence variation. Elastase derived from human leukocytes was used, and the synthetic substrate MeOSuc-Ala-Ala-Pro-Val-pNA was used as the substrate of elastase. A 100 mM Tris (pH 7.5) solution was used as a buffer solution. The elastase was diluted finally to 0.2 mU using the buffer solution. In addition, the synthetic substrate of elastase was prepared into a 100 mM solution using DMSO, and then diluted to a final concentration of 0.5 mM using a buffer solution. As a positive control group, quercetin known to inhibit elastase was used at a concentration of 10 ppm. The candidates of elastase inhibition were tested at final concentrations of 10 and 20 ppm. Reaction was conducted in a 96-well plate at room temperature for 20 minutes. The inhibition of the enzyme activity was determined by measuring absorbance at 405 nm using a spectrophotometer with 1-minute intervals, and calculating the slope of the absorbance versus time.
(§2) The peptide sequences of SEQ ID NOS 14 to 16 were treated at 100 µg/mL, and the peptide sequence RKSLFVD was used as a control peptide sequence. The inhibition of collagenase activity (%) and the inhibition of elastase activity (%) were calculated from the relative enzyme activity versus the control group, and the result is given in Table 4.
(§3) In order to investigate the effect of variation of the N-terminal or C-terminal of the peptide sequence, the activity of collagenase and elastase was tested after sequence variation as in Test Example 1.

[2] = test system: acetylcholine release at the neuromuscular synapses; conditions: cited from earlier work
[3] = test system: Collagenase derived from the mouse pancreas; assay: Inhibition of collagenase activity (synthetic substrate, absorbance at 345 nm); assay type: biochemical; conditions: 100 µg/mL
Experimental: Collagenase derived from the mouse pancreas was used, and the synthetic substrate N-(3-[2-furyl]acryloyl)-Leu-Gly-Pro-Ala was used as the substrate of collagenase. A buffer solution in which 50 mM tricine, 10 mM CaCl2·H2O and 400 mM NaCl were dissolved (pH 7.5) was used. The synthetic substrate was dissolved in the buffer solution to a concentration of 10 mM and finally diluted to 75 µM. The collagenase was dissolved to a concentration of 1 unit/mL using cold triply distilled water at 4 °C and then finally diluted to 0.05 unit/mL using a buffer solution. The candidates of collagenase inhibition were tested at final concentrations of 25 and 50 ppm. As a positive control group, epigallocatechin gallate (EGCG) known to have the effect of inhibiting collagenase was used at a final concentration of 50 ppm. Reaction was conducted in a 96-well plate at room temperature for 10 minutes. The inhibition of the enzyme activity was determined by measuring absorbance at 345 nm using a spectrophotometer with 1-minute intervals, and calculating the maximum slope of the absorbance versus time.
as §1, §2, §3

[4] = Table 5, N-terminal or C-terminal variation
[5] = Table 4, relative enzyme activity versus the control group

Compound | inhibition at 100 µg/mL [1, 5] | Inhibition of collagenase activity (%) ([3]; Table 3) | also measured
CC(=O)N[C@@H](CCCCN)C(=O)NCC(=O)N[C@@H](CCCNC(=N)N)C(=O)N[C@@H](CO)C(=O)N[C@@H](CO)C(=O)N[C@@H](CS)C(=O)N[C@@H](Cc1ccccc1)C(=O)N[C@H](C(=O)N[C@@H](CC(=O)O)C(=O)N[C@@H](CS)C(=O)O)C(C)C (Ac-KGRSSCFVDC-OH) | – | – | inhibition at 100 µg/mL [1, 4]: 71%
CCCCCCCCCCCCCCCC(=O)N[C@@H](CCCCN)C(=O)NCC(=O)N[C@@H](CCCNC(=N)N)C(=O)N[C@@H](CO)C(=O)N[C@@H](CO)C(=O)N[C@@H](CS)C(=O)N[C@@H](Cc1ccccc1)C(=O)N[C@H](C(=O)N[C@@H](CC(=O)O)C(=O)N[C@@H](CS)C(=O)O)C(C)C (Palmitoyl-KGRSSCFVDC-OH) | – | – | inhibition at 100 µg/mL [1, 4]: 74.1%
CC(C)[C@H](NC(=O)[C@H](Cc1ccccc1)NC(=O)[C@H](CS)NC(=O)[C@H](CO)NC(=O)[C@H](CO)NC(=O)[C@H](CCCNC(=N)N)NC(=O)CNC(=O)[C@@H](N)CCCCN)C(=O)N[C@@H](CC(=O)O)C(=O)N[C@@H](CS)C(N)=O [C-amine-substituted peptide of SEQ ID] (H-KGRSSCFVDC-NH2) | – | – | inhibition at 100 µg/mL [1, 4]: 52.6%
Ac-Glu-Glu-Met-Gln-Arg-Arg-NH2 (Ac-EEMQRR-NH2) [Argireline] | – | – | times weaker than Botox [2]: 5000 times
CDVFCSSRGK [SEQ ID NO 14] | – | – | Inhibition of collagenase activity (%) [3, 5]: 24.77%; Inhibition of elastase activity (%) [1, 5]: 68.5%
DVFCSSRGK [SEQ ID NO 15, DVFCSSRGK] | 65.5% | – | –
FCSSRGK [SEQ ID NO 16, FCSSRGK] | 51.5% | – | –
KGRSSCF [SEQ ID NO 3, KGRSSCF] | 57.8% | – | –
KGRSSCFDC [SEQ ID NO 11] | – | 11.82% | –
KGRSSCFVC [SEQ ID NO 12] | – | 13.97% | –
KGRSSCFVD [SEQ ID NO 2, KGRSSCFVD] | 70.9% | – | –
KGRSSCFVDC [SEQ ID NO 1] | – | 22.91% | Inhibition of collagenase activity (%) [3, 5]: 21.57%; Inhibition of collagenase activity (%) [3, 4]: 22.6%; Inhibition of elastase activity (%) [1, 5]: 72.1%; Inhibition of elastase activity (%) [1, 4]: 68.3%
KGSSCFVDC [SEQ ID NO 10] | – | 15.24% | –
RKSLFVD [Control peptide sequence, RKSLFVD, reference compound] | 5.2% | – | inhibition at 100 µg/mL [1, 4]: 1.3%
RSSCFVDC [SEQ ID NO 5] | – | 12.23% | –
SSCFVDC [SEQ ID NO 6] | – | 17.97% | –
